In brackets after ≈: the same amount, converted by molar mass. Like-named read-outs stand apart in the source and are kept apart here.
Assays:
Mtb H37Rv [1] = assay: microbe, parasite or virus in culture; type: cell-based, Mycobacterium tuberculosis; details: for MIC: Mycobacterium tuberculosis, H37RV, read-out: Mtb H37Rv MIC
[2] = Property forecast index (ChromlogD pH 7.4 + number of aromatic rings); type: physicochemical
Mycobacterium bovis BCG = assay: microbe, parasite or virus in culture; type: cell-based; details: Mycobacterium tuberculosis variant bovis BCG, read-out: MIC in M. bovis BCG
M. bovis BCG = type: cell-based, Mycobacterium bovis BCG
[3] = system: M. bovis BCG over-expressing constituents of the trp operon; type: cell-based; details: pVV16 trpA or trpB
[4] = molecular target: T1, Mtb tryptophan synthase (TrpA and TrpB) (Mycobacterium tuberculosis, UniProt P9WFX9+P9WFY1); type: biochemical
[5] = molecular target: PLP-induced tryptophan synthase complex (Mycobacterium tuberculosis, UniProt P9WFX9+P9WFY1); type: binding
[6] = pH 7.4
physchem = details: pH 7.4, aqueous buffer, kinetic from dmso stock
in vitro = details: PAMPA
[7] = pH 7.4; remark: listed apart in the source
[8] = pH 7.4; remark: listed apart in the source
[9] = PAMPA
Mtb H37Rv [10] = details: mouse, in vivo
[11] = molecular target: T1, Mtb tryptophan synthase (TrpA and TrpB); type: biochemical; remark: listed apart in the source
[12] = sum of chromatographic logD at pH = 7.4 + number of aromatic rings

T1 sequence (P9WFY1 whole entry): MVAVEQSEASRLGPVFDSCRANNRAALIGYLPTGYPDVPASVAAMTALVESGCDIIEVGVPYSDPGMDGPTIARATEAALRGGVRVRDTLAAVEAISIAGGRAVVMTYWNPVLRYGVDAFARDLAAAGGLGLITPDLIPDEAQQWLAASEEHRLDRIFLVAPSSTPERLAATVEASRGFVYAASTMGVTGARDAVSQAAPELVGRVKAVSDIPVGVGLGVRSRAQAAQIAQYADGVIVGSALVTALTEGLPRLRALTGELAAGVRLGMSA
T1 sequence (P9WFX9 12-421 limits assumed): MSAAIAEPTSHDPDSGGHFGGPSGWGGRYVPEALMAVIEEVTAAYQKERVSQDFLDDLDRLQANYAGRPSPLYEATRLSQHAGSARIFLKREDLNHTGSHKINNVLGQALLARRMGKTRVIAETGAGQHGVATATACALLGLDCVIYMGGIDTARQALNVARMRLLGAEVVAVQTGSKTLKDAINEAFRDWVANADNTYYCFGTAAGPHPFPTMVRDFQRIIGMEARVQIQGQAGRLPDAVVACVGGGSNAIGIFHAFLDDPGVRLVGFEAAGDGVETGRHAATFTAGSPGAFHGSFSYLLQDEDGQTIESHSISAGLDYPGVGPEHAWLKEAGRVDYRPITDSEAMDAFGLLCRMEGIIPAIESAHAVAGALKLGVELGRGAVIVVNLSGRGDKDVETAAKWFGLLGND
Chain of PLP-induced tryptophan synthase complex (P9WFY1 whole entry): as the sequence (P9WFY1 whole entry) above
Chain of PLP-induced tryptophan synthase complex (P9WFX9 12-421 limits assumed): as the sequence (P9WFX9 12-421 limits assumed) above

Compound | MIC (Mtb H37Rv [1]) | MIC (Mycobacterium bovis BCG) | L-tryptophan rescue of inhibition (M. bovis BCG) | Effect on MIC of over-expression of the individual WT subunits [3] | Binding to PLP-induced tryptophan synthase complex [5] | HepG2 Tox50 (HepG2 cells; human) | CLND Solubility [6] | solubility (physchem) | Papp (in vitro) | PFI [2, 12] | Cli mouse [7] | Cli human [8] | Mtb H37Rv MIC (Mtb H37Rv [1]) | HepG2 Tox50 (HepG2 cells) | AMP Permeability [9] | other results
CNS(=O)(=O)c1ccc2c(c1)CCN2C(=O)c1ccccc1F [Compound 2] | 5.6 µM (≈ 1.87 µg/mL) | 5 µM (≈ 1.67 µg/mL) | L-tryptophan rescued the inhibition | did not alter the MIC | binding of both inhibitors | >100 µM | enhanced solubility | 140 µM (≈ 46.8 µg/mL) | 26 ×10⁻⁶ cm/s |  |  |  |  |  |  | PFI [2]: 5.80; L-tryptophan synthesis in presence of inhibitor (TLC) [4]: markedly decreased
O=S1(=O)C[C@H](O)[C@@H](N2CCN(c3ccccc3Cl)CC2)C1 [Compound 1, (3R,4R)-3-(4-(2-chlorophenyl)piperazin-1-yl)-4-hydroxytetrahydrothiophene 1,1-dioxide] | 0.76 µM (≈ 0.251 µg/mL) | 1 µM (≈ 0.331 µg/mL) |  | did not alter the MIC |  | >50 µM |  | > 464 µM | 38 ×10⁻⁶ cm/s | 4.53 | 15.7 mL/min/g | 0.92 mL/min/g |  |  |  | 
(3R,4R)-3-(4-(2-chlorophenyl)piperidin-1-yl)-4-hydroxytetrahydrothiophene 1,1-dioxide [Compound 4] |  |  |  |  |  |  | 434 µM |  |  | 5.43 |  |  | 2.25 µM | >100 µM | 62.5 ×10⁻⁶ cm/s | Efficacy response in acute infection assay (Mtb H37Rv [10]): proved to be efficacious; Reduction of log CFU compared with untreated mice (Mtb H37Rv [10]; po, 350 mg/kg): 1.4 log colony forming units (CFU); Tolerability in infected mice (Mtb H37Rv [10]; po, 500 mg/kg): had to be withdrawn due to adverse effects
(3R,4R)-3-(4-(2-chloro-4-fluorophenyl)piperidin-1-yl)-4-hydroxytetrahydrothiophene 1,1-dioxide [Compound 5] |  |  |  |  |  |  | 397 µM |  |  | 5.22 |  |  | 0.5 µM | >100 µM | 52 ×10⁻⁶ cm/s | Efficacy response in acute infection assay (Mtb H37Rv [10]; sc): did not show a statistically significant response
NNC(=O)c1ccncc1 [Isoniazid, isoniazid, reference compound] |  |  | L-tryptophan does not rescue the inhibition |  |  |  |  |  |  |  |  |  |  |  |  | 
CNS(=O)(=O)c1ccc2c(c1)CCN2C(=O)c1ccc(C)s1 [Compound 3] | 1.1 µM (≈ 0.37 µg/mL) | 0.7 µM (≈ 0.236 µg/mL) | L-tryptophan rescued the inhibition | did not alter the MIC | binding of both inhibitors | >100 µM | poor solubility | 19 µM (≈ 6.39 µg/mL) | 42.7 ×10⁻⁶ cm/s |  | 27.1 mL/min/g | 1.9 mL/min/g |  |  |  | L-tryptophan produced in presence of inhibitor (GF-HPLC) [11]: significant decrease in the L-tryptophan produced

Source: paper PMC5573416, “Inhibiting mycobacterial tryptophan synthase by targeting the inter-subunit interface” (Scientific Reports, 2017)
